The source made the active and inactive calls. The rule behind the calls is not given here.
Tests used:
[1] = biological target: T1, Tyrosine-protein phosphatase non-receptor type 22 (Homo sapiens, UniProt Q9Y2R2)
T1 sequence (Q9Y2R2 whole entry): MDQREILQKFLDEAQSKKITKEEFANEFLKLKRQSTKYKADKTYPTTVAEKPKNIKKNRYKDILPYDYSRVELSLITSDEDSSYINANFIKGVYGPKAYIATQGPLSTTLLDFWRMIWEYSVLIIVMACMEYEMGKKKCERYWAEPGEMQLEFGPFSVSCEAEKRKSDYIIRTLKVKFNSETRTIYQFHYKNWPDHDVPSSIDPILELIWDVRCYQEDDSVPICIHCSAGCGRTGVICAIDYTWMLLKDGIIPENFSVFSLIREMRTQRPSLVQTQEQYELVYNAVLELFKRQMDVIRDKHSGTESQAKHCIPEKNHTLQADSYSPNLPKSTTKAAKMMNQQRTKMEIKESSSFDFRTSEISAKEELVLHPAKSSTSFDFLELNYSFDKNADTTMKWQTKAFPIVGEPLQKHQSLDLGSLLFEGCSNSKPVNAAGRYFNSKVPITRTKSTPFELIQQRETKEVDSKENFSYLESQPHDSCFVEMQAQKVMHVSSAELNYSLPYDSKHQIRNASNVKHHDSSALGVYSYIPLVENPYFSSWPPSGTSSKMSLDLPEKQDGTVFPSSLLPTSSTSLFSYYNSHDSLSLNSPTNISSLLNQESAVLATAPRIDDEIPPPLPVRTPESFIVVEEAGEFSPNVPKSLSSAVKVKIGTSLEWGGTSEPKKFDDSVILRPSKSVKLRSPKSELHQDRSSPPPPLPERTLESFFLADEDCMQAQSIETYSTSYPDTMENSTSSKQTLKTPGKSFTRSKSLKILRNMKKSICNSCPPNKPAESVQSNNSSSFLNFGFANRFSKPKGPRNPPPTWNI

[2] = biological target: T1, Tyrosine-protein phosphatase non-receptor type 22; remark: listed apart in the source
Description: Inhibition of LYP expressed in Escherichia coli BL21 using increasing levels of ARLIED-NEpYTAREG substrate

[3] = biological target: T1, Tyrosine-protein phosphatase non-receptor type 22; remark: listed apart in the source
Description: Inhibition of LYP expressed in Escherichia coli BL21 using pNPP substrate

[4] = biological target: T2, Low molecular weight phosphotyrosine protein phosphatase (Homo sapiens, UniProt P24666)
T2 sequence (P24666 whole entry): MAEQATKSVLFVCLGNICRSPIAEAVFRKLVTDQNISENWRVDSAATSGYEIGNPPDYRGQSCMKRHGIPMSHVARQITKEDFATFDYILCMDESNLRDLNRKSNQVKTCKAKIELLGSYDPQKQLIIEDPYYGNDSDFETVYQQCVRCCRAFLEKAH
Description: Inhibition of LMPTP-A expressed in Escherichia coli BL21 using pNPP substrate

[5] = biological target: T3, Tyrosine-protein phosphatase non-receptor type 12 (Homo sapiens, UniProt Q05209)
T3 sequence (Q05209 whole entry): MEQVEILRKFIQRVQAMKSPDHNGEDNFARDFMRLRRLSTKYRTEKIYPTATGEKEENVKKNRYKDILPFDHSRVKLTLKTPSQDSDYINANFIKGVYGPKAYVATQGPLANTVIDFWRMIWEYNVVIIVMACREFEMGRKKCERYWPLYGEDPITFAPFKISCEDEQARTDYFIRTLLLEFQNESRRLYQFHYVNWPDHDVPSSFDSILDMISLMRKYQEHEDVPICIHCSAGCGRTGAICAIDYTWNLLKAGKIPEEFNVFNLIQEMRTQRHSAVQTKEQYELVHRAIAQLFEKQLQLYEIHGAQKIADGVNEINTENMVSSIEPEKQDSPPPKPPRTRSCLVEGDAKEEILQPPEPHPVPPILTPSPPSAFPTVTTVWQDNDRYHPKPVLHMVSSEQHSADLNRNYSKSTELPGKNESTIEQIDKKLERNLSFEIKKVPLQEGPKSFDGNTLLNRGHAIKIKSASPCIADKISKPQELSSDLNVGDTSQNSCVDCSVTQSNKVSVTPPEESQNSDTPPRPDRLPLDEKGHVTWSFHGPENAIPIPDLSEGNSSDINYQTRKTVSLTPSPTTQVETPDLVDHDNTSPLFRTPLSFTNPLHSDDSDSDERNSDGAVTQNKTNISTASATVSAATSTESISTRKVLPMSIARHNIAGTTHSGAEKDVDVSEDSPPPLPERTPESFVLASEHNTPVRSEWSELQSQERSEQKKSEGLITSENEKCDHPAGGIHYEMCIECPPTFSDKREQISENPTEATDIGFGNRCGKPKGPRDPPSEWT
Description: Inhibition of PTP-PEST expressed in Escherichia coli BL21 using pNPP substrate

[6] = biological target: T4, Tyrosine-protein phosphatase non-receptor type 7 (Homo sapiens, UniProt P35236)
T4 sequence (P35236 whole entry): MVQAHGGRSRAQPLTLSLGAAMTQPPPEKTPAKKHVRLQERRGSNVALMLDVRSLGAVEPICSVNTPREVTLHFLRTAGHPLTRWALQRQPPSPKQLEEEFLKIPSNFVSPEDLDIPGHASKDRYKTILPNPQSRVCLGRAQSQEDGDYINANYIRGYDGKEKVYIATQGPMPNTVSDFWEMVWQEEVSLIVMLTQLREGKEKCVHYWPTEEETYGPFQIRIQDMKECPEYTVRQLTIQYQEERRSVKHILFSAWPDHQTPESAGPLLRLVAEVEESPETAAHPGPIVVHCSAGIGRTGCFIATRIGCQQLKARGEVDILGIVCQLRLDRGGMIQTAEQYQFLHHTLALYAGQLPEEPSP
Description: Inhibition of HePTP expressed in Escherichia coli BL21 using pNPP substrate

[7] = biological target: T5, Tyrosine-protein phosphatase non-receptor type 22 (Mus musculus) (UniProt P29352); assay: Inhibition of LYP in anti-CD3 and antiCD28 antibody-stimulated C57BL/6 mouse CD8+ splenocytes assessed as increase in TCR signaling-stimulated CD69 expression at 50 uM incubated for 24 hrs (reference value: 5.3%); set-up: scale not given: the % may be the effect or the level left
T5 sequence (whole entry): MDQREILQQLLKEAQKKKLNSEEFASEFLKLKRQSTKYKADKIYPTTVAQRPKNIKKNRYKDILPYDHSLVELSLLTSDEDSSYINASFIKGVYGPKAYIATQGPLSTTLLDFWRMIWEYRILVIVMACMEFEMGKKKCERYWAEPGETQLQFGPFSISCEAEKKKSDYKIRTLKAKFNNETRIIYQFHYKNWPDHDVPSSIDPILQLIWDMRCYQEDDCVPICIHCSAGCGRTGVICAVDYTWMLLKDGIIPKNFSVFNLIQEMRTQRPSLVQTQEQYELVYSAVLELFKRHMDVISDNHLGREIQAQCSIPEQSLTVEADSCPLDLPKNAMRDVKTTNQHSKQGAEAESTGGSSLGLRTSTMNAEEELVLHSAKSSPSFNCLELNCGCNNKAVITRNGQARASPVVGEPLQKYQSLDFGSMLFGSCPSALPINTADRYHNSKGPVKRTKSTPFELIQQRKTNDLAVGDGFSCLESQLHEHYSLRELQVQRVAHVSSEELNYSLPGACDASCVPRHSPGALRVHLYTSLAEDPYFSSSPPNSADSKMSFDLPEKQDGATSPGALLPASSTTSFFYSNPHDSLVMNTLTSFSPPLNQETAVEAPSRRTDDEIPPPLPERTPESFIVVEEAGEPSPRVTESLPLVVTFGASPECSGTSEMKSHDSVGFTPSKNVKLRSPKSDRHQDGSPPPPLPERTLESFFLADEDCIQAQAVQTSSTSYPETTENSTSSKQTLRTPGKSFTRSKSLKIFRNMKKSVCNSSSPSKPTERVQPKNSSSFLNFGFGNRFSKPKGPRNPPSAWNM

[8] = biological target: T5, Tyrosine-protein phosphatase non-receptor type 22 (Mus musculus); assay: Inhibition of LYP in anti-CD3 and antiCD28 antibody-stimulated C57BL/6 mouse CD4+ splenocytes assessed as increase in TCR signaling-stimulated CD69 expression at 100 uM incubated for 24 hrs (reference value: 29.2%); set-up: scale not given: the % may be the effect or the level left
[9] = biological target: T5, Tyrosine-protein phosphatase non-receptor type 22 (Mus musculus); assay: Inhibition of LYP in anti-CD3 and antiCD28 antibody-stimulated C57BL/6 mouse CD4+ splenocytes assessed as increase in TCR signaling-stimulated CD69 expression at 50 uM incubated for 24 hrs (reference value: 29.2%); set-up: scale not given: the % may be the effect or the level left
[10] = biological target: T5, Tyrosine-protein phosphatase non-receptor type 22 (Mus musculus); assay: Inhibition of LYP in anti-CD3 and antiCD28 antibody-stimulated C57BL/6 mouse CD8+ splenocytes assessed as increase in TCR signaling-stimulated CD69 expression at 100 uM incubated for 24 hrs (reference value: 5.3%); set-up: scale not given: the % may be the effect or the level left
[11] = Inhibition of TCR signaling in anti-CD3 and anti-CD4 antibody stimulated mouse Ptpn22-/- T cells assessed as increase in Lck Y394 phosphorylation at 50 uM by Western blotting; conditions: T-cell
[12] = biological target: T5, Tyrosine-protein phosphatase non-receptor type 22 (Mus musculus); assay: Inhibition of LYP-mediated TCR signaling in anti-CD3 and anti-CD4 antibody stimulated mouse Ptpn22+/+ T cells assessed as increase in Lck Y394 phosphorylation at 50 uM by Western blotting; conditions: T-cell

| Structure (SMILES) | IC50 [3] [µM] | IC50 [4] [µM] | IC50 [5] [µM] | IC50 [6] [µM] | also measured |
| --- | --- | --- | --- | --- | --- |
| Cc1ccc2[nH]c(=O)c(C(c3nnnn3C3CCCC3)N3CCN(C(c4ccccc4)c4ccccc4)CC3)cc2c1 (centres undefined) | – | – | – | – | Ki [1]: 21.3 µM; Ki [2]: 11 µM |
| Cc1ccc2[nH]c(=O)c(C(c3nnnn3-c3ccccc3)N3CCCC4(CCCCC4)C3)cc2c1 (centres undefined) | 11.2 | – | – | – | – |
| CCOc1ccc(NC(=O)CSc2nc3c(C)cc(C)cc3cc2C#N)cc1 | 28.1 | > 90 | 16 | 16 | – |
| Cc1ccc(NC(=O)CSc2nc3c(C)c(C)ccc3cc2C#N)cc1C | 26.6 | 53.3 | 27.5 | 20 | – |
| Cc1ccc2[nH]c(=O)c(C(c3nnnn3C3CCCC3)N3CCC(C)CC3)cc2c1 (centres undefined) | 20.6 | – | – | – | – |
| Cc1ccc2sc(NC(=O)c3sc4ccccc4c3Cl)nc2c1 | 29.5 | > 90 | 14 | 8 | – |
| Cc1ccc2[nH]c(=O)c(C(c3nnnn3C3CCCC3)N3CCN(Cc4ccccc4)CC3)cc2c1 (centres undefined) | > 40 | – | – | – | – |
| Cc1ccc2[nH]c(=O)c(C(c3nnnn3C3CCCC3)N(Cc3ccccc3)Cc3ccccc3)cc2c1 (centres undefined) | 13.3 | – | – | – | – |
| Cc1ccc2[nH]c(=O)c(C(c3nnnn3C(C)C)N3CCCC4(CCCCC4)C3)cc2c1 (centres undefined) | 21.2 | – | – | – | – |
| COc1ccc(N2CCN(C(c3cc4cc(C)ccc4[nH]c3=O)c3nnnn3C3CCCC3)CC2)cc1 (centres undefined) | 31.5 | – | – | – | – |
| Cc1ccc2[nH]c(=O)c(C(c3nnnn3C3CCCC3)N3CCN(c4nc5ccccc5s4)CC3)cc2c1 (centres undefined) | 30 | – | – | – | – |
| Cc1ccc2[nH]c(=O)c(C(c3nnnn3C3CCCC3)N3CCN(C4CCCCC4)CC3)cc2c1 (centres undefined) | > 40 | – | – | – | – |
| Cc1cccc2cc(C#N)c(SCC(=O)Nc3cccc(Cl)c3)nc12 | 27.2 | > 90 | 28 | 22 | – |
| COc1ccccc1N1CCN(C(c2cc3cc(C)ccc3nc2O)c2nnnn2C2CCCC2)CC1 (centres undefined) | > 40 | – | – | – | – |
| COc1ccc(-n2ncc3c(SCC(=O)N4c5ccccc5CC4C)ncnc32)cc1 (centres undefined) | – | > 90 | > 40 | – | – |
| CCN1CCN(C(c2cc3cc(C)ccc3[nH]c2=O)c2nnnn2C2CCCC2)CC1 (centres undefined) | > 40 | – | – | – | – |
| Cc1ccc2[nH]c(=O)c(C(c3nnnn3C3CCCC3)N3CCN(c4ccc(O)cc4)CC3)cc2c1 (centres undefined) | > 40 | – | – | – | – |
| Cc1ccc2[nH]c(=O)c(C(c3nnnn3C3CCCC3)N3CCCCC3)cc2c1 (centres undefined) | 30.9 | – | – | > 75 | – |
| Cc1ccc2[nH]c(=O)c(C(c3nnnn3C3CCCC3)N3CCN(C)CC3)cc2c1 (centres undefined) | > 40 | – | – | – | – |
| Cc1ccc2[nH]c(=O)c(C(c3nnnn3C3CCCC3)N3CCN(c4ccccc4)CC3)cc2c1 (centres undefined) | 30.7 | – | – | – | – |
| COc1ccc2cc(C#N)c(SCC(=O)Nc3cccc(C)c3C)nc2c1 | 30.5 | 60.9 | 18 | 15 | – |
| Cc1ccc2[nH]c(=O)c(C(c3nnnn3C3CCCC3)N3CCCC4(CCCCC4)C3)cc2c1 (centres undefined) | – | – | – | – | Activity [7]: 12.1%; Activity [8]: 38.9%; Activity [9]: 36.8%; Activity [10]: 13.7%; inhibition [11]: inactive; inhibition [12]: Active |
| Cc1ccc2[nH]c(=O)c(C(c3nnnn3C3CCCC3)N3CCN(c4ccc(F)cc4)CC3)cc2c1 (centres undefined) | 30.5 | – | – | – | – |
| Cc1ccc2cc(C#N)c(SCC(=O)Nc3ccc4c(c3)OCO4)nc2c1 | 23.3 | > 90 | 36 | 12 | – |
| Cc1ccc2cc(C#N)c(SCC(=O)NC3CCCCC3)nc2c1C | 19.8 | 45.3 | 21 | 8 | – |
